The EC50 is the midpoint of the concentration-response curve. The term CC50 denotes the concentration giving 50% cytotoxicity. For orientation: AC50 means the midpoint of the concentration-response curve, whichever way the signal moves. A word on the IC50: it is the point on the concentration scale where inhibition reaches its midpoint.

Test [1] can be described thus: Luminescence Cell-Based Dose Response HTS to Identify Activators of Luciferase Translation or Activity in H4 […] Cells. [Related pubchem assays: 1829 (Project Summary), 1814 (Primary HTS)]. The format is functional.
A short description of test [2]: THP-1 cell cytotoxicity, dose response, cytotoxicity control for non-replicating M. tuberculosis project (AID 489025). The format is functional.
The subject of the next test is H4. Put plainly: Luminescence Cell-Based Dose Response HTS to Identify Activators of 5'UTR Stem-Loop Driven Prion Protein mRNA Translation in H4 Neuroglioblastoma Cells. [Related pubchem assays: 1829 (Project Summary), 1814 (Primary HTS)]. The conditions noted are these: Homo sapiens. The format is functional.
For test [3], the target named is T1, DNA repair protein RAD52 homolog (Homo sapiens, UniProt P43351).
T1 sequence (P43351 whole entry): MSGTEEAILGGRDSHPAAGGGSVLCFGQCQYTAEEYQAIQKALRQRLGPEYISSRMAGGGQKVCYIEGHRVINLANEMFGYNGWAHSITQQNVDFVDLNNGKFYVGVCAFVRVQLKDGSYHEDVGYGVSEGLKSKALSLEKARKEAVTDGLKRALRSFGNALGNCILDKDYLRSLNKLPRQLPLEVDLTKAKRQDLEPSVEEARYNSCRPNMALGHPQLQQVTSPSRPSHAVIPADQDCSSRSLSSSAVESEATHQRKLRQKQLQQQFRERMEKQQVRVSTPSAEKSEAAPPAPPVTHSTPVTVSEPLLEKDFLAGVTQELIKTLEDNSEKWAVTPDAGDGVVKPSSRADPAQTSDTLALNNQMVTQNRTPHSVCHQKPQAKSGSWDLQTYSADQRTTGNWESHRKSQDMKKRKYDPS
The format is functional, biochemical.

Test [4] deals with Glyceraldehyde-3-phosphate dehydrogenase (Homo sapiens, UniProt P04406).
Chain of Glyceraldehyde-3-phosphate dehydrogenase (P04406 whole entry): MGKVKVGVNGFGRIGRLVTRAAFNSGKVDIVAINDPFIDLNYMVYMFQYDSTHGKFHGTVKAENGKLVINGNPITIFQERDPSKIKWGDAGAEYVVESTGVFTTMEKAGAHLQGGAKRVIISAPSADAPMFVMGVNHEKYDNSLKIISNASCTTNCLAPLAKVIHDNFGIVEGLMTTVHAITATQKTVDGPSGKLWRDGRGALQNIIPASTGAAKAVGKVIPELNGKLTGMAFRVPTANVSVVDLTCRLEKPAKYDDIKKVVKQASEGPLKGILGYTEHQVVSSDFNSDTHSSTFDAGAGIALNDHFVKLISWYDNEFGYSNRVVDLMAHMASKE
The target of test [5] is T2, Calpain-2 catalytic subunit (Sus scrofa, UniProt P43367).
T2 sequence (P43367 whole entry): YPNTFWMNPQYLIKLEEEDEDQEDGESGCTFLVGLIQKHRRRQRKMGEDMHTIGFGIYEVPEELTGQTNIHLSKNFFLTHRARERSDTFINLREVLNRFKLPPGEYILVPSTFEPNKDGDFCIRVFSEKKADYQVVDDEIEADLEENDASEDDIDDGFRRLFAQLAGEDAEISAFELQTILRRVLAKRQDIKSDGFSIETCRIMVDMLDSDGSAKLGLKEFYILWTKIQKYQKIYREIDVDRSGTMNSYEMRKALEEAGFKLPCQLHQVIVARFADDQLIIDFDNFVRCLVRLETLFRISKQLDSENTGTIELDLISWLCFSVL
Put plainly: m-calpain protease blockers, concentration series – biochemical, fluorogenic peptide substrate, dose response (AID 1420). Format: functional.

For test [6], the target named is T3, Heat shock factor protein 1 (Mus musculus, UniProt P38532).
T3 sequence (P38532 whole entry): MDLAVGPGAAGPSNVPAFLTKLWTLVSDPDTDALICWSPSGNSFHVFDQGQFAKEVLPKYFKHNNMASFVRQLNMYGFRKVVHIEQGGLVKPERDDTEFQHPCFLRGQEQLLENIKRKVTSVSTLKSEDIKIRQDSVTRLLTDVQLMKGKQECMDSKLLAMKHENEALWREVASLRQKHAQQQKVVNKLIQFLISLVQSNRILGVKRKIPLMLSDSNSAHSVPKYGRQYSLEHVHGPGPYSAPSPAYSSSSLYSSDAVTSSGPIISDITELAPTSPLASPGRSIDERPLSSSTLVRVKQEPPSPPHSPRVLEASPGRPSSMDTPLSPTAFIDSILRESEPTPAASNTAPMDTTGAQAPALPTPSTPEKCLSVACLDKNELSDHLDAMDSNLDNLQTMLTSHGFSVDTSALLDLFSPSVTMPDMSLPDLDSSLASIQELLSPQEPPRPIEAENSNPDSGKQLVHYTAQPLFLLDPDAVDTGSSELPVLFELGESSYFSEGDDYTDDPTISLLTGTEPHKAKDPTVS
Description: decrease of HSF1-responsive luciferase luminescence – cell-based, NIH3T3, dose retest, confirmation (AID 2382).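 Also: NIH3T3 fibroblasts with HSF1-driven luciferase reporter stressed by proteasome inhibitor MG132; luminescence from HSF1-driven luciferase expression after 8 hours of MG132 stress.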 Format: functional.

The target of test [7] is Eukaryotic translation initiation factor 4E (Mus musculus, UniProt P63073). Put plainly: blockers of eIF4G binding by eIF4E – biochemical, TR-FRET, dose response (AID 855).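 Also: potency for disrupting eIF4E binding to eIF4GI seen as loss of FRET.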 Format: functional. (In general: TR-FRET usually uses a lanthanide donor and a delayed reading to cut background.)
Chain of Eukaryotic translation initiation factor 4E (P63073 whole entry): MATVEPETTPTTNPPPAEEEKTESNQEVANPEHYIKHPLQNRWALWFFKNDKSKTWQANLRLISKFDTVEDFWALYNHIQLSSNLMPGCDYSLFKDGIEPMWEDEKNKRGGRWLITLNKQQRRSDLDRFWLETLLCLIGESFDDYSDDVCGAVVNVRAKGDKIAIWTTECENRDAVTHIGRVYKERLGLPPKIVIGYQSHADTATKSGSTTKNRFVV
A further test addresses Estrogen receptor beta (Homo sapiens, UniProt Q92731).
For test [8], the system named is BJ. Put plainly: cells. The format is functional, cell-based. The conditions noted are these: Homo sapiens.
The nature of test [9]: viability of HCT116 lacking mutant beta-catenin – cell-based, human colon tumor, dose response (AID 1045).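 Also: HCT116 colon tumor cells with beta catenin knocked out; cells exposed to compound for 60 hours.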 Format: functional.
The test system of test [10] is BJ. Description: BJ-TERT-LT-ST fibroblast viability loss – cell-based, RAS-independent, luminescence, dose response (AID 1935).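 Also: BJ fibroblasts immortalized with TERT plus LT and ST oncogenes.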 The format is functional. As to conditions: Homo sapiens.
Test [11] in a line: DRD fibroblast viability loss – cell-based, non-viral oncogenic, luminescence, dose response (AID 1934). As to conditions: Homo sapiens. The format is functional.
Test [12] addresses T4, Short transient receptor potential channel 4 (Mus musculus, UniProt Q9QUQ5).
T4 sequence (Q9QUQ5 whole entry): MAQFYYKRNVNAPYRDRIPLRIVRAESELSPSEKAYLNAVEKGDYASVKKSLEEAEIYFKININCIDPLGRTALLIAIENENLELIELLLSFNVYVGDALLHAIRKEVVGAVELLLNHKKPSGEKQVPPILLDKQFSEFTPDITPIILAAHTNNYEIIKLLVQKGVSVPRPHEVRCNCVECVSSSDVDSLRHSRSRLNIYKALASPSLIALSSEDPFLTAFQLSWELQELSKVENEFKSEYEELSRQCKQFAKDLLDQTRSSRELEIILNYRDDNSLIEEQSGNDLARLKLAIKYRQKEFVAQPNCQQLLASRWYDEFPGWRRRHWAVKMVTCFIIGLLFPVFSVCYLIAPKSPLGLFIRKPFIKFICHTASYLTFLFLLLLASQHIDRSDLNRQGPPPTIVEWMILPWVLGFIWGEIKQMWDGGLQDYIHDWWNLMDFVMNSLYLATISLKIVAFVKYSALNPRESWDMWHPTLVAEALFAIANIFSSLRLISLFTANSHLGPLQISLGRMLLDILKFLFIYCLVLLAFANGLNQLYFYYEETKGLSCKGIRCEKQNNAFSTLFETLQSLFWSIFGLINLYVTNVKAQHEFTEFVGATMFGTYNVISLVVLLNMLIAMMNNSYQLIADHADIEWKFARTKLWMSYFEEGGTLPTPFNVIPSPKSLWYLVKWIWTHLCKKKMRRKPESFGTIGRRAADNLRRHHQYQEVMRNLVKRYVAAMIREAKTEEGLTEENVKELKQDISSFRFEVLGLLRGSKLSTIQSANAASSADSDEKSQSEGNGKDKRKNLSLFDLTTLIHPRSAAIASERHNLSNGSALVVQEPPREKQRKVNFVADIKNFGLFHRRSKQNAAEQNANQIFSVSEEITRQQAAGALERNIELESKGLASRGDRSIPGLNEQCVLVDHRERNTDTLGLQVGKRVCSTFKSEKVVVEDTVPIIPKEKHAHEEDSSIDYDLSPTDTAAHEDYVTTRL
Put plainly: calcium entry via TRPC4 opening agents – cell-based, HEK293 TRPC4/mu-opioid, Fluo-4 calcium, dose response (AID 434937). Format: functional.

Test [13] can be described thus: viability of PTEN-deleted HCT116 cells – cell-based, HCT116 PTEN knockout, dose response (AID 1047).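 Also: HCT116 colon tumor cells with PTEN knocked out; cells exposed to compound for 60 hours before readout; potency for loss of cell viability measured by luminescence.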 The format is functional.
Test [14] concerns BJ. Description: BJ-TERT fibroblast viability loss – cell-based, RAS-independent, luminescence, dose response (AID 1933). The format is functional. The conditions noted are these: Homo sapiens.
Test [15] deals with T5, DNA repair and recombination protein RAD54-like (Homo sapiens, UniProt Q92698).
T5 sequence (Q92698 whole entry): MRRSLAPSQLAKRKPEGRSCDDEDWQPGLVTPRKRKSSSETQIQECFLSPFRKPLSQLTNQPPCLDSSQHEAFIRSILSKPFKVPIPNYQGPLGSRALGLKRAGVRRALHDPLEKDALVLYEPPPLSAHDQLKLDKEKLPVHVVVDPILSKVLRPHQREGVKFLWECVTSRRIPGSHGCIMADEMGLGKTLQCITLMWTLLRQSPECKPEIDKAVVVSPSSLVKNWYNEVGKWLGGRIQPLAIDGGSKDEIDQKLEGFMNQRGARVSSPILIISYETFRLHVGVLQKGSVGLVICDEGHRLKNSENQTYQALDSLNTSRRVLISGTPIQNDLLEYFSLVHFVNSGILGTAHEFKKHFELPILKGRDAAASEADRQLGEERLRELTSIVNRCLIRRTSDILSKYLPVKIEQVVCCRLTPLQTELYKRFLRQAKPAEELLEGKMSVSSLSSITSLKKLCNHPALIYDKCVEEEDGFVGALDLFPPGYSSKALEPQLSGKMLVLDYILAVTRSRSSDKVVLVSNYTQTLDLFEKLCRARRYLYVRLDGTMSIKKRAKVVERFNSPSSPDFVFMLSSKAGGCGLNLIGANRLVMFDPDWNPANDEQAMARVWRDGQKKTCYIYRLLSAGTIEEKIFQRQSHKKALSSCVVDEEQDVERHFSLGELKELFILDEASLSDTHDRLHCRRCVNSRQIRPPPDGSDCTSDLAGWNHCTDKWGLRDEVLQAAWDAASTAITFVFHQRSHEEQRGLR
Put plainly: RAD54 Holliday junction migration blockers – biochemical, fluorescence, cherry-picked samples, dose series, confirmation (AID 651657). The format is functional.

Test [16] has as its target T6, Ubiquitin-conjugating enzyme E2 N (Homo sapiens, UniProt P61088).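 Also: Dose-response confirmation in a TR-FRET assay detecting UBC13-driven polyubiquitin chain formation, inhibition measured.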
T6 sequence (P61088 whole entry): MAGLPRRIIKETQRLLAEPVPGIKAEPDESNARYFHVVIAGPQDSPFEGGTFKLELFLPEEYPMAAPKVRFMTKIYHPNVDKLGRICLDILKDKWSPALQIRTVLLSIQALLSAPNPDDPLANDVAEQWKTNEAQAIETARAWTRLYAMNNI
The format is functional.

Test [17] in a line: intracellular Trypanosoma cruzi inhibitors in host cells – cell-based, plate reader, cherry-pick samples, set 3, dose response (AID 651818).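 Also: compounds incubated with infected cells for about four days.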 The format is functional.

Each structure is given as a SMILES string. Activity calls are given as the source filed them. Some results are limits rather than exact numbers.

Chain of Estrogen receptor beta (Q92731 whole entry): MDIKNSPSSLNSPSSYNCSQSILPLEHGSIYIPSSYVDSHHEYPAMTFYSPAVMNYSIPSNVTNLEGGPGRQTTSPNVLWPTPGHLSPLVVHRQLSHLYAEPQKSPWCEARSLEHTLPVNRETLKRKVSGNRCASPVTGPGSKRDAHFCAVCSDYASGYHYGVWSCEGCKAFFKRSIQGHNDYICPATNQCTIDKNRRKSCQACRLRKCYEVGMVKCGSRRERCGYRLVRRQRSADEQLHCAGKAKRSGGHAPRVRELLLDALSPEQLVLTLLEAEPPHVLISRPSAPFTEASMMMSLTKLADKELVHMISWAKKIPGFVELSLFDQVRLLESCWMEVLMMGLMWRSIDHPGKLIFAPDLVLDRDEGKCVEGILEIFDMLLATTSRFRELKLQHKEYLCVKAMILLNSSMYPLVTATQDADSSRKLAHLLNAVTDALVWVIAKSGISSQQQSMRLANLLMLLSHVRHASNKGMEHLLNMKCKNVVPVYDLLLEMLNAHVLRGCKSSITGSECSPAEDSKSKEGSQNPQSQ

Turning to `O=C(CCC1CCCC1)Nc1ccc(Br)cn1`, the EC50 in [1] is 0.805 µM (active); in the test with H4 it was > 120 µM (not active). Also, the CC50 in [2] was > 40 µM (active). For `CN(C)CCCN=C(S)N(CCN(C)C)Cc1cc2cc3c(cc2nc1O)OCCO3`, the AC50 in test [3] was 5.91 µM (active). On to `O=C(CCC1CCCC1)Nc1nnc[nH]1`, for which the IC50 in test [4] was > 10 µM (inconclusive). For the molecule `CC(C)Cc1ccc(C(C)C(=O)OCC(=O)c2c[nH]c3ccccc23)cc1` (configuration not stated), the IC50 in test [5] was 6.65 µM (not active).

Consider `Cn1c2c(c(=O)n(C)c1=O)C(CC(=O)Nc1ccccc1)C(=O)N2` (configuration not stated), for which the EC50 in test [6] was > 195 µM (not active). For the same molecule, the IC50 in test [5] is listed as 2.62 µM (not active). Regarding `Cn1c(N)c(C(=O)COC(=O)CC2CC3CCC2C3)c(=O)n(C)c1=O` (configuration not stated), the IC50 in [5] was 2.16 µM (active). On the same count and under the same terms, the figure for `COc1ccc(C(C)=O)c2c(O)cccc12` is 0.917 µM (not active). As for `Clc1ccc(OCCCn2cncn2)cc1Cl`, the IC50 in test [7] is > 64 µM (inactive). Still for that read-out and setting: the figure for `Oc1cc2c(cc1C(c1ccc(Br)cc1)N1CCCC1)OCO2` (configuration not stated) is 50 µM (inactive). As for `Cc1n[nH]c(C)c1S(=O)(=O)N(CC(=O)N1CCc2ccccc21)c1ccc(C(C)C)cc1`, the IC50 against Estrogen receptor beta was > 50 µM (not active).

Turning to `CCN(CC)CCCNC(=O)c1cc2c(-c3ccc(Cl)cc3)nn(C)c2s1`, the EC50 was 21.8 µM (active) in the test with BJ [8]; 4.29 µM (active) in [9]; 12.1 µM (inconclusive) with BJ [10]; 10.4 µM (active) in test [11]; 0.335 µM (active) in test [12]; 5.12 µM (active) in [13]. The EC50 with BJ [14] is 9.1 µM (active). Further, in test [15], the AC50 is 35.9 µM (active). `Cc1ccc(C)c(SCC(=O)NC(=O)Nc2ccc3c(c2)OCCO3)c1`: the IC50 in test [5] was < 0.4 µM (not active).

Consider `CCC[C@@H](CN1CCC[C@H]1CN1C(N)=NC[C@H]1CC(C)C)N1C[C@@H]([C@H](C)CC)N(CCc2ccc(Cl)c(Cl)c2)C1=N`, for which the IC50 in [16] is > 20 µM (inactive). Further, the AC50 in test [3] is 12.4 µM (active). Take `CC(=O)Nc1cc(-c2cccc(C(=O)NCCN(C)C)c2)cn2c(-c3ccc(S(C)(=O)=O)cc3)cnc12`: the values for the AC50 in test [3] and in test [15] were 2.7 µM (active) and 25.8 µM (active), respectively. With `Cc1nc2nc(C)c(C)nc2nc1C`, in test [15], the AC50 is 34.7 µM (active). For `COc1ccc(S(=O)(=O)N(C)C[C@@H]2Oc3c(NS(=O)(=O)c4ccccc4)cccc3C(=O)N([C@@H](C)CO)C[C@@H]2C)cc1`, the half-maximal activity concentration (AC50) in test [17] was 12.9 µM (active).

In the case of `C[C@H]1CN([C@@H](C)CO)C(=O)c2cccc(NC(=O)c3nc4ccccc4s3)c2O[C@H]1CN(C)Cc1ccc(C(=O)Nc2ccccc2N)cc1`, the AC50 in test [17] is 2.97 µM (active). Still for that read-out and setting: under `C[C@@H]1CCCCO[C@@H](CN(C)Cc2ccc(Cl)c(Cl)c2)[C@@H](C)CN([C@H](C)CO)C(=O)c2cc(NC(=O)Nc3ccc4c(c3)OCO4)ccc2O1` stands 3.68 µM (active). On to `COc1ccc(-c2nc(C(=O)NCCCN3CCOCC3)cc3c2[nH]c2ccccc23)cc1OC`, for which the AC50 was 4.84 µM (active) in test [3] and 13.7 µM (active) in test [15].

For the origin of these results see ChEMBL document CHEMBL1201862, “PubChem BioAssay data set” (2004).
